Source: patent publication US20050049299A1, “Selective inhibitors of stat-3 activation and uses thereof” (priority 2003, published 2005)

Tests used:
Format in all cases: cell-based, human
STAT3 phosphorylation [1] = test: Constitutive STAT3 phosphorylation in U266 cells (Western blot)
Experimental: (§1) U266 cells (2×10^6) were treated with the indicated concentrations of curcumin for 1 h, or treated with 50 μM curcumin for the indicated durations and levels of phosphorylated-STAT3 (upper panel) and STAT3 (lower panel) were examined in whole cell extracts by Western Blotting. […] U266 cells (2×10^6) were treated with 50 μM curcumin for indicated durations, and examined for phosphorylated and nonphosphorylated-STAT3, and STAT5. […] U266 cells (2×10^6) were preincubated with curcumin (50 μM) for indicated durations before treatment with IFN-α (10 ng/ml) for additional 30 min and then examined for phosphorylated and nonphosphorylated-STAT1.
U266 cells (2×10^6 cells) were treated with 50 μM curcumin for the indicated durations (left panels) or treated for 1 h and washed with PBS two times to remove curcumin before resuspending in fresh medium. Cells were removed at indicated times and lysed to prepare the whole cell extract (right panels). Thirty micrograms of whole cell extracts were resolved on 7.5% SDS-PAGE, electrotransferred to a nitrocellulose membrane, probed for the phosphorylated-STAT3 (upper panels) and stripped and reprobed for STAT3 (middle panels) and β-actin (lower panels).
Thirty micrograms of whole-cell extract was resolved on 7.5% SDS-PAGE, electrotransferred to a nitrocellulose membrane, probed for the phospho-STAT3 (upper panel), stripped, and reprobed for STAT3 (middle panel) and β-actin (lower panel).
(§2) For detection of STAT proteins, whole-cell extracts were prepared by lysing the curcumin-treated cells in lysis buffer (20 mM Tris, pH 7.4, 250 mM NaCl, 2 mM EDTA, pH 8.0, 0.1% Triton-X100, 0.01 mg/ml aprotinin, 0.005 mg/ml leupeptin, 0.4 mM PMSF, and 4 mM NaVO4). Lysates were then spun at 14000 rpm for 10 min to remove insoluble material, and resolved on a 7.5% gel. After electrophoresis, the proteins were electrotransferred to a nitrocellulose membrane, blocked with 5% nonfat milk, and probed with anti-STAT antibodies (1:1000) overnight at 4° C. The blot was washed, exposed to HRP-conjugated secondary antibodies for 1 h, and finally examined by chemiluminescence (ECL, Amersham Pharmacia Biotech. Arlington Heights, Ill.).
Whether curcumin inhibits the constitutive STAT3 phosphorylation in U266 was investigated. U266 cells were incubated either with different concentrations of curcumin for 1 h or with 50 μM curcumin for different times. Curcumin inhibited the constitutively active STAT3 in a dose-(FIG. 1A) and time-(FIG. 1B) dependent manner. Curcumin-induced inhibition could be observed as early as 10 min and with a concentration as low as 10 μM.
Whether curcumin-induced inhibition of STAT3 phosphorylation was reversible was further examined. U266 cells were first treated for 60 min with curcumin, and then the cells were washed twice with PBS to remove curcumin. The cells were then cultured in the fresh medium for various durations, and the levels of phosphorylated STAT3 were measured.
In comparison, treatment of cells with 50 μM curcumin for 60 minutes was sufficient to inhibit STAT3 phosphorylation (see FIGS. 1A and 1B).

STAT5 phosphorylation = test: Constitutive STAT5 phosphorylation in U266 cells (Western blot); conditions: 50 μM, conditions of complete STAT3 phosphorylation inhibition
Experimental: as §1
as §2, with “Ill.). […]” for “Ill.).”

STAT3 phosphorylation [2] = test: Phosphorylated STAT3 in HNSCC cells (immunocytochemistry, horseradish peroxidase stain); conditions: 50 μM, 2 hrs
Experimental: MDA 1986LN, MDA 686LN and JMAR cells were incubated with either media alone or with curcumin (50 μM) for 2 hrs and then analyzed by immunocytochemistry using Alexa fluorochrome for the distribution of STAT3 (original magnification ×200). […] The same procedure as mentioned above was performed on the same cells and the p-STAT3 analyzed by immunocytochemistry using horse radish peroxidase stain (original magnification ×200).
To further confirm that curcumin inhibited STAT3 phosphorylation, the same curcumin-treated and untreated cells were analyzed for phosphorylated STAT3 by immunocytochemistry using horseradish peroxidase stain. […] These findings confirmed that curcumin inhibited STAT3 phosphorylation.

MDA 1986LN cells = test: Proliferation of MDA 1986LN cells (MTT assay)
Experimental: MDA 1986LN cells (2×10^6 cells) were treated with indicated concentrations of AG490 for 8 h and whole extracts prepared. These whole-cell extracts (30 μg) were resolved on 7.5% SDS-PAGE, electrotransferred to a nitrocellulose membrane, probed for p-STAT3 (upper panel), striped and reprobed for STAT3 (middle panel) and β-actin (lower panel). […] The cells were treated with AG490 (100 μM) for the indicated durations and whole cell extracts prepared and analyzed as mentioned earlier. FIG. 15C compares the effect of curcumin and AG490 on proliferation of MDA 1986LN cells by MTT assay.
Further, the proliferation of MDA 1986LN cells when treated with curcumin was compared with AG490 treated cells by performing MTT assay.

Question: Which results are given for COc1cc(/C=C/C(=O)CC(=O)/C=C/c2ccc(O)c(OC)c2)ccc1O [curcumin, diferuloylmethane]?
Answer: dose needed to suppress STAT3 phosphorylation (comparison AG490 vs curcumin) (STAT3 phosphorylation [1]): 10 µM; earliest time at which inhibition of constitutive STAT3 phosphorylation could be observed (STAT3 phosphorylation [1]; U266 cells, 50 μM curcumin): 10 min; treatment time sufficient to inhibit STAT3 phosphorylation (STAT3 phosphorylation [1]; U266 cells, 50 μM curcumin): 60 min; inhibition of constitutive STAT3 phosphorylation (STAT3 phosphorylation [1]; U266 cells, 50 μM, 1 h): completely inhibited; lowest concentration at which inhibition of constitutive STAT3 phosphorylation could be observed (STAT3 phosphorylation [1]; U266 cells, 1 h): 10 µM; time to complete reversal of STAT3 phosphorylation inhibition after removal of curcumin (STAT3 phosphorylation [1]; U266 cells, 60 min treatment then washed): ≤ 24 h; overall expression of STAT3 protein (STAT3 phosphorylation [1]; U266 cells, curcumin treatment): did not alter the overall expression of STAT3 protein; exposure needed to suppress STAT3 phosphorylation (comparison AG490 vs curcumin) (STAT3 phosphorylation [1]; curcumin): 30 min; levels of constitutively phosphorylated STAT5 (STAT5 phosphorylation): neither altered the levels of constitutively phosphorylated STAT5; phosphorylation of STAT3 (immunocytochemistry) (STAT3 phosphorylation [2]; JMAR cells): no inhibition of STAT3 phosphorylation was observed; phosphorylation of STAT3 (immunocytochemistry) (STAT3 phosphorylation [2]; MDA 1986LN and MDA 686LN cells): inhibited the phosphorylation of STAT3; inhibition of proliferation of MDA 1986LN cells compared with AG490 (MDA 1986LN cells): more efficiently that AG490
